Experimental data from patent US20070244179A1, “Dihydro[1,4]dioxino[2,3-e]indazole derivatives as 5-hydroxytryptamine-6 ligands” (Wyeth, priority 2006, published 2007).
Structures can show the parent of a compound that is named as a salt. Where two headings read alike, the source gives them in different places.

Columns and labels:
[1] = biological target: human cloned 5-HT6 receptors (Homo sapiens, UniProt P50406); assay: Evaluation of 5-HT6 binding affinity ([3H]-LSD displacement, membranes of Hela cells)
human cloned 5-HT6 receptors, sequence (P50406 whole entry): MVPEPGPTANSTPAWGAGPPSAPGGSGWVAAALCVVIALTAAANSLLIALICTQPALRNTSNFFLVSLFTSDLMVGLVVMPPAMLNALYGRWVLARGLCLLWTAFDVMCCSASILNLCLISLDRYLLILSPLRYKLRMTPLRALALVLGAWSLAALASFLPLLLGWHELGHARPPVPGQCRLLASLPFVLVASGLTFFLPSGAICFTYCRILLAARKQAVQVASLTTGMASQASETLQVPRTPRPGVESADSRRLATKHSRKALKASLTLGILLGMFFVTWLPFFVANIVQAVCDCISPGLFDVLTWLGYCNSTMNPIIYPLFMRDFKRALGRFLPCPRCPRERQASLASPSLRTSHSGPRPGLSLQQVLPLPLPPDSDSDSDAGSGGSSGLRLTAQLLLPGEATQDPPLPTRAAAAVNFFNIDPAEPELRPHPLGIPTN

Row | Structure (SMILES) | melting point | Ki [1] | further results
1 | O=S(=O)(c1cccc2ccccc12)c1n[nH]c2ccc3c(c12)O[C@H](CN1CCCCC1)CO3 (as salt: hydrochloride) [Example 17, (2R)-9-(1-naphthylsulfonyl)-2-(piperidin-1-ylmeyhyl)-2,3-dihydro-7H [1,4]dioxino-[2,3-e]indazole] | 187 to 189 °C |  | 
2 | CCN(CC)C[C@H]1COc2ccc3[nH]nc(S(=O)(=O)c4cccc5ccccc45)c3c2O1 (as salt: hydrochloride) [Example 9, N-ethyl-N-{[(2S)-9-(1-naphthylsulfonyl)-2,3-dihydro-7H-[1,4]dioxino[2,3-e]indazol-2-yl]methyl}ethanamine] | 175.6 to 177.2 °C |  | 
3 | CNC[C@H]1COc2ccc3[nH]nc(S(=O)(=O)c4cccc5ccccc45)c3c2O1 [Example 6, N-Methyl-1-[(2S)-9-(1-naphthylsulfonyl)-2,3-dihydro-7H-[1,4]dioxino [2,3-e]indazol-2-yl]methanamine Hydrochloride] |  | 0.0445 µM | 
4 | CNC[C@H]1COc2ccc3[nH]nc(S(=O)(=O)c4cccc5ccccc45)c3c2O1 (as salt: hydrochloride) [Example 6, N-Methyl-1-[(2S)-9-(1-naphthylsulfonyl)-2,3-dihydro-7H-[1,4]dioxino [2,3-e]indazol-2-yl]methanamine Hydrochloride] | 181.3 to 183.3 °C |  | 
5 | CCNC[C@@H]1COc2ccc3[nH]nc(S(=O)(=O)c4cccc5ccccc45)c3c2O1 (as salt: hydrochloride) [Example 15, N-{[(2R)-9-(1-naphthylsulfonyl)-2,3-dihydro-7H-[1,4]dioxino[2,3-e]indazol-2yl]methyl}-ethanamine] | 182 to 184 °C |  | 
6 | CCN(CC)C[C@H]1COc2ccc3[nH]nc(S(=O)(=O)c4cccc5ccccc45)c3c2O1 [Example 9, N-ethyl-N-{[(2S)-9-(1-naphthylsulfonyl)-2,3-dihydro-7H-[1,4]dioxino[2,3-e]indazol-2-yl]methyl}ethanamine] |  | 0.0135 µM | 
7 | O=S(=O)(c1cccc2ccccc12)c1n[nH]c2ccc3c(c12)O[C@H](CN1CCCC1)CO3 (as salt: hydrochloride) [Example 16, (2R)-9-(1-naphthylsulfonyl)-2-(pyrrolidin-1-ylmeyhyl)-2,3-dihydro-7H-[1,4]dioxino-[2,3-e]indazole] | 184 to 186 °C |  | 
8 | CCNC[C@H]1COc2ccc3[nH]nc(S(=O)(=O)c4cccc5ccccc45)c3c2O1 [Example 7, N-{[(2S)-9-(1-naphthylsulfonyl)-2,3-dihydro-7H-[1,4]dioxino[2,3-e]indazol-2-yl]-methyl}ethanamine] |  | 0.084 µM | 
9 | CN(C)C[C@@H]1COc2ccc3[nH]nc(S(=O)(=O)c4cccc5ccccc45)c3c2O1 [Example 13, N,N-dimethyl-1-[(2R)-9-(1-naphthylsulfonyl)-2,3-dihydro-7H-[1,4]dioxino[2,3-e]-indazol-2-yl]methanamine] |  | 0.031 µM | 
10 | CCN(CC)C[C@@H]1COc2ccc3[nH]nc(S(=O)(=O)c4cccc5ccccc45)c3c2O1 [Example 14, N-ethyl-N-{[(2R)-9-(1-naphthylsulfonyl)-2,3-dihydro-7H-[1,4]dioxino[2,3-e]indazol-2yl]-methyl}ethanamine] |  | 0.042 µM | 
11 | O=S(=O)(c1cccc2ccccc12)c1n[nH]c2ccc3c(c12)O[C@@H](CN1CCCC1)CO3 (as salt: hydrochloride) [Example 10, (2S)-9-(1-naphthylsulfonyl)-2-(pyrrolidin-1-ylmethyl)-2,3-dihydro-7H-[1,4]dioxino-[2,3-e]indazole] | 182.6 to 184.3 °C |  | 
12 | CCNC[C@H]1COc2ccc3[nH]nc(S(=O)(=O)c4cccc5ccccc45)c3c2O1 (as salt: hydrochloride) [Example 7, N-{[(2S)-9-(1-naphthylsulfonyl)-2,3-dihydro-7H-[1,4]dioxino[2,3-e]indazol-2-yl]-methyl}ethanamine] | 178.9 to 180.1 °C |  | 
13 | CN(C)C[C@H]1COc2ccc3[nH]nc(S(=O)(=O)c4cccc5ccccc45)c3c2O1 (as salt: hydrochloride) [Example 8, N,N-dimethyl-1-[(2S)-9-(1-naphthylsulfonyl)-2,3-dihydro-7H-[1,4]dioxino[2,3-e]-indazol-2-yl]methanamine] | 178.1 to 181.3 °C |  | 
14 | CNC[C@@H]1COc2ccc3[nH]nc(S(=O)(=O)c4cccc5ccccc45)c3c2O1 (as salt: hydrochloride) [Example 12, N-methyl-1-[(2R)-9-(1-naphthylsulfonyl)-2,3-dihydro-7H-[1,4]dioxino[2,3-e]indazol-2-yl]methanamine] | > 200 °C |  | 
15 | O=S(=O)(c1cccc2ccccc12)c1n[nH]c2ccc3c(c12)O[C@@H](CN1CCCCC1)CO3 [Example 11, (2S)-9-(1-naphthylsulfonyl)-2-(piperidin-1-ylmethyl)-2,3-dihydro-7H-[1,4]dioxino-[2,3-e]indazole] |  | 0.079 µM | 
16 | CCCCNC[C@@H]1COc2ccc3[nH]nc(S(=O)(=O)c4cccc5ccccc45)c3c2O1 [Example 18] |  |  | Ki ([1]; read-out: 5-HT6 Binding Ki, [3H]-LSD 3.0 nM, Hela cell membranes expressing human cloned 5-HT6 receptors, 120 minutes at room temperature): 0.03 µM
17 | CCNC[C@@H]1COc2ccc3[nH]nc(S(=O)(=O)c4cccc5ccccc45)c3c2O1 [Example 15, N-{[(2R)-9-(1-naphthylsulfonyl)-2,3-dihydro-7H-[1,4]dioxino[2,3-e]indazol-2yl]methyl}-ethanamine] |  | 0.0325 µM | 
18 | CCN(CC)C[C@@H]1COc2ccc3[nH]nc(S(=O)(=O)c4cccc5ccccc45)c3c2O1 (as salt: hydrochloride) [Example 14, N-ethyl-N-{[(2R)-9-(1-naphthylsulfonyl)-2,3-dihydro-7H-[1,4]dioxino[2,3-e]indazol-2yl]-methyl}ethanamine] | > 200 °C |  | 
19 | O=S(=O)(c1cccc2ccccc12)c1n[nH]c2ccc3c(c12)O[C@H](CN1CCCC1)CO3 [Example 16, (2R)-9-(1-naphthylsulfonyl)-2-(pyrrolidin-1-ylmeyhyl)-2,3-dihydro-7H-[1,4]dioxino-[2,3-e]indazole] |  | 0.0395 µM | 
20 | CNC[C@@H]1COc2ccc3[nH]nc(S(=O)(=O)c4cccc5ccccc45)c3c2O1 [Example 12, N-methyl-1-[(2R)-9-(1-naphthylsulfonyl)-2,3-dihydro-7H-[1,4]dioxino[2,3-e]indazol-2-yl]methanamine] |  | 0.0545 µM | 
21 | O=S(=O)(c1cccc2ccccc12)c1n[nH]c2ccc3c(c12)O[C@H](CN1CCCCC1)CO3 [Example 17, (2R)-9-(1-naphthylsulfonyl)-2-(piperidin-1-ylmeyhyl)-2,3-dihydro-7H [1,4]dioxino-[2,3-e]indazole] |  | 0.0365 µM | 
22 | O=S(=O)(c1cccc2ccccc12)c1n[nH]c2ccc3c(c12)O[C@@H](CN1CCCC1)CO3 [Example 10, (2S)-9-(1-naphthylsulfonyl)-2-(pyrrolidin-1-ylmethyl)-2,3-dihydro-7H-[1,4]dioxino-[2,3-e]indazole] |  | 0.031 µM | 
23 | CN(C)C[C@H]1COc2ccc3[nH]nc(S(=O)(=O)c4cccc5ccccc45)c3c2O1 [Example 8, N,N-dimethyl-1-[(2S)-9-(1-naphthylsulfonyl)-2,3-dihydro-7H-[1,4]dioxino[2,3-e]-indazol-2-yl]methanamine] |  | 0.0615 µM | 
24 | O=S(=O)(c1cccc2ccccc12)c1n[nH]c2ccc3c(c12)O[C@@H](CN1CCCCC1)CO3 (as salt: hydrochloride) [Example 11, (2S)-9-(1-naphthylsulfonyl)-2-(piperidin-1-ylmethyl)-2,3-dihydro-7H-[1,4]dioxino-[2,3-e]indazole] | 163.9 to 165.2 °C |  | 
25 | CN(C)C[C@@H]1COc2ccc3[nH]nc(S(=O)(=O)c4cccc5ccccc45)c3c2O1 (as salt: hydrochloride) [Example 13, N,N-dimethyl-1-[(2R)-9-(1-naphthylsulfonyl)-2,3-dihydro-7H-[1,4]dioxino[2,3-e]-indazol-2-yl]methanamine] | > 200 °C |  | 
